Results taken from patent US20240261272A1, “LPA1 ANTAGONISTS FOR TREATING INTERSTITIAL LUNG DISEASE” (Bristol-Myers Squibb Company, priority 2022, published 2024).

Tests used:
[1] = Phase 1 Part B multiple ascending dose (MAD) study in healthy participants: safety, blood pressure; assay type: in vivo, human; parameters: Mean DBP: unit not given here
Method: The study was performed in 3 parts in 112 healthy male and female participants, including 24 Japanese participants. Female participants were to be not of childbearing potential. The present study was designed to evaluate the safety and tolerability, PK, and exploratory PD of an oral suspension of Compound A. Parts A and B (Cohort B1 only) enrolled healthy participants and was conducted at a site in The Netherlands and Part B (Cohort B2 to B5) enrolled healthy non-Japanese participants and was conducted at a site in the United Kingdom (UK). Part C enrolled healthy Japanese participants and was conducted at the same site in the UK.
Part B was a MAD study in a planned number of 6 sequential dose escalation cohorts (10 mg QD, 30 mg QD, 30 mg BID, 60 mg BID, 125 mg BID, and ≤250 mg BID) of 8 healthy participants (6 active+2 placebo) each, under fasted conditions. However, Cohort B6 (≤250 mg BID) was cancelled because sufficient safety and PK data had been obtained at doses up to 125 mg BID. Eligible participants received study drug (Compound A or placebo) administered orally for 14 days.
Physical examinations, vital sign measurements (including orthostasis testing in Cohort A6, Cohort B3 to B5, and C1 to C3 at selected time points), 12-lead electrocardiogram (ECG), and clinical laboratory evaluations were performed at selected times throughout the study. In addition, Holter monitoring was performed for the first 24 hours post dose on Day 1 in Part A (not in FE/pH cohort), and also for the first 24 hours post dose on Day 1 and Day 14 in Parts B and C. Participants were closely monitored for adverse events (AEs). Blood samples were collected for up to 14 days (follow-up visit) after (last) study drug administration for PK analysis. In addition, blood and urine were collected for exploratory biomarker assessments and for biobanking of samples for potential analyses. Urine was collected for potential PK analysis for up to 96 hours after a single dose of Compound A or placebo was administered in the SAD part, and for up to 24 hours after the first (morning) dose of study drug on Day 1 and for up to 24 hours after the last (morning) dose of study drug on Day 14 in the MAD parts.

[2] = system: participants with IPF; assay: Phase 2 study, IPF cohort: efficacy (rate of change in ppFVC, FVC); assay type: in vivo, human; details: for relative treatment benefit compared to PBO (ppFVC) / relative reduction in rate of decline in ppFVC compared to PBO: 60 mg; for relative reduction in rate of decline in ppFVC compared to PBO: overall
Method: A total of 278 participants with IPF were randomized and 276 participants were treated as of the final analyses data cut-off (4 Aug. 2022). Male and female participants ≥40 years of age with IPF and percent predicted forced vital capacity (ppFVC)≥40% and percent predicted DLCO (ppDLCO)≥25%; diagnosed within 7 years of screening; having a centrally-read chest HRCT obtained at screening that was consistent with UIP or probable UIP, or having a lung biopsy consistent with UIP, were eligible to enter the study. The mean baseline ppFVC for all subjects was 76.5%. In the primary IPF cohort, participants were randomized (1:1:1) to receive 30 mg or 60 mg Compound A or placebo (PBO) twice daily for 26 weeks. Participants were stratified by standard of care (SoC) IPF therapy (pirfenidone versus nintedanib versus none) and region (Japan versus Rest of World) at randomization.
The primary objective of the study was to determine the rate of change in ppFVC from baseline to Week 26. The primary objective was evaluated with a two estimand framework to handle the intercurrent event of dose reduction to 10 mg BID or matching PBO when pre-specified low BP criteria is met. The primary estimand is adopted to estimate treatment effect when dose reduction is implemented. The supplementary estimand is adopted to estimate the effect of treatment without dose reduction.
Analysis Strategy: The primary estimand was to evaluate the efficacy of Compound A at 30 mg or 60 mg twice daily, compared to PBO in IPF participants who met the enrollment criteria, with or without use of SoC. The rate of decline in ppFVC (%) from baseline to Week 26 was compared using the difference between each dose and PBO as a population level summary regardless of dose reduction or treatment discontinuation for any reason (treatment policy strategy).
Analysis Strategy: The supplementary estimand for the primary objective is to evaluate the efficacy of Compound A at 30 mg or 60 mg twice daily without dose reduction, compared to the PBO in IPF subjects who met the enrollment criteria, with or without use of SoC. The rate of decline in ppFVC (%) from baseline to Week 26 has been compared using the difference between each dose and PBO as a population level summary regardless of treatment discontinuation for any reason (treatment policy strategy). In the event of dose reduction, data collected after dose reduction will not be considered relevant to the treatment effect of interest and therefore, will be treated as missing (while-on-treatment strategy).

CCCN(C)C(=O)OCc1c(-c2ccc(O[C@H]3CCC[C@H](C(=O)O)C3)c(C)n2)nnn1C [Compound A, (1S,3S)-3-((2-methyl-6-(1-methyl-5-(((methyl(propyl)carbamoyl)-oxy)methyl)-1H-1,2,3-triazol-4-yl)pyridin-3-yl)oxy)cyclohexane-1-carboxylic acid]
Mean DBP ([1]; MAD 10 mg QD, D 1 2 h): 70.2 | Mean DBP ([1]; MAD 10 mg QD, D 1 4 h): 65.8 | Mean DBP ([1]; MAD 10 mg QD, D 1 8 h): 68.7 | Mean DBP ([1]; MAD 10 mg QD, D 2 24 h): 65.3 | Mean DBP ([1]; MAD 10 mg QD, D 14 312 h): 69.3 | Mean DBP ([1]; MAD 10 mg QD, D 14 314 h): 67.5 | Mean DBP ([1]; MAD 10 mg QD, D 14 317 h): 64.3 | Mean DBP ([1]; MAD 10 mg QD, D 14 320 h): 67.5 | Mean DBP ([1]; MAD 10 mg QD, D 15 336 h): 66.8 | Mean DBP ([1]; MAD 30 mg BID, D 1 2 h): 63.3 | Mean DBP ([1]; MAD 30 mg BID, D 1 4 h): 62.7 | Mean DBP ([1]; MAD 30 mg BID, D 1 8 h): 63.2 | Mean DBP ([1]; MAD 30 mg BID, D 2 24 h): 66.7 | Mean DBP ([1]; MAD 30 mg BID, D 14 312 h): 68.7 | Mean DBP ([1]; MAD 30 mg BID, D 14 314 h): 63.8 | Mean DBP ([1]; MAD 30 mg BID, D 14 317 h): 61.0 | Mean DBP ([1]; MAD 30 mg BID, D 14 320 h): 617 | Mean DBP ([1]; MAD 30 mg BID, D 15 336 h): 65.3 | Mean DBP ([1]; MAD 30 mg QD, D 1 2 h): 66.5 | Mean DBP ([1]; MAD 30 mg QD, D 1 4 h): 67.8 | Mean DBP ([1]; MAD 30 mg QD, D 1 8 h): 66.0 | Mean DBP ([1]; MAD 30 mg QD, D 2 24 h): 67.3 | Mean DBP ([1]; MAD 30 mg QD, D 14 312 h): 63.3 | Mean DBP ([1]; MAD 30 mg QD, D 14 314 h): 63.5 | Mean DBP ([1]; MAD 30 mg QD, D 14 317 h): 61.8 | Mean DBP ([1]; MAD 30 mg QD, D 14 320 h): 63.2 | Mean DBP ([1]; MAD 30 mg QD, D 15 336 h): 62.3 | Mean DBP ([1]; MAD 60 mg BID, D 1 2 h): 64.5 | Mean DBP ([1]; MAD 60 mg BID, D 1 4 h): 66.0 | Mean DBP ([1]; MAD 60 mg BID, D 1 8 h): 64.7 | Mean DBP ([1]; MAD 60 mg BID, D 2 24 h): 65.7 | Mean DBP ([1]; MAD 60 mg BID, D 14 312 h): 64.8 | Mean DBP ([1]; MAD 60 mg BID, D 14 314 h): 64.0 | Mean DBP ([1]; MAD 60 mg BID, D 14 317 h): 62.5 | Mean DBP ([1]; MAD 60 mg BID, D 14 320 h): 63.0 | Mean DBP ([1]; MAD 60 mg BID, D 15 336 h): 64.5 | Mean DBP ([1]; MAD 125 mg BID, D 1 2 h): 62.3 | Mean DBP ([1]; MAD 125 mg BID, D 1 4 h): 64.7 | Mean DBP ([1]; MAD 125 mg BID, D 1 8 h): 64.7 | Mean DBP ([1]; MAD 125 mg BID, D 2 24 h): 66.3 | Mean DBP ([1]; MAD 125 mg BID, D 14 312 h): 62.0 | Mean DBP ([1]; MAD 125 mg BID, D 14 314 h): 65.0 | Mean DBP ([1]; MAD 125 mg BID, D 14 317 h): 59.2 | Mean DBP ([1]; MAD 125 mg BID, D 14 320 h): 61.8 | Mean DBP ([1]; MAD 125 mg BID, D 15 336 h): 63.0 | BP reductions versus placebo (in words) ([1]; MAD BID groups): no clear differences between placebo and the Compound A groups | efficacy compared to PBO (in words) ([2]; 30 mg dose group, Week 26): did not demonstrate efficacy | treatment response versus PBO (in words) ([2]; 60 mg dose group, Week 26, ppFVC and FVC (mL)): favorable treatment responses | relative treatment benefit compared to PBO (ppFVC) ([2]; not on background SoC, primary estimand): 113% | relative treatment benefit compared to PBO (ppFVC) ([2]; not on background SoC, supplementary estimand): 123% | relative treatment benefit compared to PBO (ppFVC) ([2]; on background SoC, primary estimand): 39% | relative treatment benefit compared to PBO (ppFVC) ([2]; on background SoC, supplementary estimand): 44% | relative reduction in rate of decline in ppFVC compared to PBO ([2]; primary estimand): 54% | relative reduction in rate of decline in ppFVC compared to PBO ([2]; supplementary estimand): 62%
